Data as given in article PMC2970562, “High-Affinity Inhibitors of Human NAD^+-Dependent 15-Hydroxyprostaglandin Dehydrogenase: Mechanisms of Inhibition and Structure-Activity Relationships” (PLoS ONE, 2010).
Where two headings read alike, the source gives them in different places.

Experiments:
human 15-PGDH [1] = biological target: T1, human 15-PGDH (Homo sapiens, UniProt P15428); assay: qHTS and 24-point re-test: fluorescence assay of NAD+ reduction to NADH on PGE2 oxidation (PubChem AID 894); assay type: biochemical
T1 construct: comprising residues 3–256 of the human HPGD gene (GenBank identifier: 1203982); His6 (GHHHHHH, behind the TEV site) (C, cleaved yes); made in house; host or cells: E. coli BL21(DE3)-R3
T1 sequence (P15428 3-256): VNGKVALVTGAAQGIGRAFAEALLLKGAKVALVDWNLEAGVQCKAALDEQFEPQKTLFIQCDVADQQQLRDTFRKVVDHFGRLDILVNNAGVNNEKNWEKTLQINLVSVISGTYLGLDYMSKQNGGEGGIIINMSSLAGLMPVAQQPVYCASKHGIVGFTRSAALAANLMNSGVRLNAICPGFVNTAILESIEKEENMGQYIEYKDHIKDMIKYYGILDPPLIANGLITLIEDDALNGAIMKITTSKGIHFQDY
Experimental: The assay was miniaturized to a 4-µL volume in 1536-well format: enzyme (3 µL) was dispensed first, followed by a pintool transfer of library compounds dissolved in DMSO. After equilibration, a substrate dispense (1 µL) initiated the enzymatic reaction (see Materials and Methods, for detailed protocol description). […] Hits associated with low-efficacy (<40% maximum inhibition), incomplete curves, as well as those displaying only a single-point inhibition at the top concentration tested were eliminated from further consideration. Similarly, the collection of real-time kinetic data allowed the autofluorescence of each compound to be evaluated by comparing the initial fluorescence read at top concentration with the mean value of uninhibited assay controls: compounds whose top-concentration initial well fluorescence exceeded six standard deviations over the mean were flagged as potential autofluorescent artifacts, [28] (see example in supplementary information Figure S1E). The complete screening and followup results are available in PubChem (PubChem Assay ID 894).
The enzymatic reaction was performed in 50 mM Tris-HCl pH 8.0, containing 0.01% Tween 20. […] The high-throughput screen was performed on a fully integrated robotic system (Kalypsys Inc, San Diego, CA) as described elsewhere. Library compounds, arrayed as seven-point inter-plate concentration series, were screened from the lowest (3.5 nM) to the highest (57.5 µM) concentration, with plates containing DMSO only, serving to note any systematic drifts in the signal, interspersed evenly throughout the screen (approximately every 50 plates). Briefly, 3 µL of reagents were dispensed into 1536-well Greiner black solid-bottom assay plates using integrated nanoliter solenoid-technology dispensers. Compounds and controls (23 nL) were transferred via Kalypsys pintool equipped with 1,536-pin array (10-nL slotted pins; V&P Scientific, Palo Alto, CA). After a 15-minute incubation (to allow for interaction between compound and enzyme), a 1-µL substrate addition step initiated the reaction. Kinetic data were collected on a ViewLux High-throughput CCD imager (Perkin-Elmer) equipped with standard UV fluorescence optics (exc. 340 nm, em. 450 nm).
Starting fluorescence intensity and the change in fluorescence over the two-minute initial rate period were recorded for every well. Screening data were normalized against no-enzyme (64 wells, columns 3 and 4) and no-compound (32 wells located in column 1) controls, and concentration-response relationships were derived as described previously. A four-parameter Hill equation [47] was fitted to the concentration-response data using publicly available algorithms (http://www.ncgc.nih.gov/pub/openhts/curvefit/).

human 15-PGDH [2] = biological target: T1, human 15-PGDH; assay: Differential scanning fluorimetry (DSF), thermal stabilization; assay type: binding; conditions: for increase of stability by cofactor: versus ligand-free 15-PGDH
Experimental: A correlation between the ΔTm and the inhibitory potency has been shown in a number of protein-ligand systems, particularly for kinases [32]–[34].
Studies to assess the thermal stability of human 15-PGDH in presence of compounds were performed as described previously, with variations. Briefly, the protein was diluted to a final assay concentration of 1 µM in 100 mM Tris buffer pH 8.0, containing 0.01% Tween-20 and 1∶1000 SYPRO orange dye (Invitrogen). […] Compounds were added at a ratio of 1∶5 from appropriate stock solutions in 10% (v/v) DMSO to comprise either 50 or 250 µM final concentrations. Heat denaturation curves were recorded using a RT-PCR instrument (Mx3005p, Agilent) applying a temperature gradient of 2°C/min. […] 2.5 (ftp://ftp.sgc.ox.ac.uk/pub/biophysics) and PRISM 5.0 (GraphPad Software, Inc.).

human 15-PGDH [3] = biological target: T1, human 15-PGDH; assay: Substrate (PGE2) and cofactor (NAD+) titrations, mechanism of action, global fitting; assay type: biochemical
Experimental: Kinetic studies were performed in 100 mM Tris buffer pH 8.0, containing 0.01% Tween-20 and 10 nM 15-PGDH enzyme. […] All inhibitor compounds were dissolved in 10% (v/v) DMSO at varying concentrations from which they were applied at 1∶5 ratio (resulting in a final concentration of 2% (v/v) DMSO in all assays). For each experiment an aliquot of purified enzyme was thawed freshly and pre-diluted to 10 µM in buffer I (5 mM Tris/HCl, pH 8.0, 150 mM NaCl, 0.01% Tween-20). All experiments were performed in white 384-well PCR microplates (Bio-Rad Laboratories, Inc.) in final assay volumes of 20 µL. Twelve-point compound titrations were set up from serially diluted stock solutions in 10% (v/v) DMSO. […] The initial rates recorded in compound titrations were plotted against -log[compound], and non-linear regression (Levenberg-Marquardt) fitting of the dose-response curve to the Hill equation [47] was performed to derive the IC50, using PRISM 5.0 (GraphPad Software, Inc.). For substrate/cofactor titrations, curves with initial rates plotted against the concentration of substrate or cofactor were fitted to the Michaelis-Menten equation, to derive maximal activities, V max, and Michaelis constants, K m. Fitting qualities were judged from the goodness of fit (R^2>0.98).

[4] = potency in 24-point titrations on re-test, 20 nM 15-PGDH, 1 mM NAD+, 30 µM PGE2, pH 8.0
[5] = potency in 24-point titrations on re-test, 20 nM 15-PGDH, 1 mM NAD+, 30 µM PGE2, pH 8.0, read-out: qHTS IC50
[6] = cofactor, absence of inhibitor, 30 µM PGE2
[7] = substrate, absence of inhibitor

Row | Structure (SMILES) | IC50 (human 15-PGDH [1]; [5]) | further results
1 | COc1ccc(N2CCN(C(=O)c3ccc(CSc4ccccc4)cc3)CC2)cc1 [Compound 6] | – | qHTS IC50 [nM] (human 15-PGDH [1]; [4]): Inactive; IC50 (human 15-PGDH [1]; re-test of qHTS hits, Figure 2, read-out: IC50 from re-testing): > 10000 nM
2 | CC(=O)Nc1ccc(NC(=O)CSc2nc3c(cc2C#N)CCC3)cc1 [Compound 10] | 282 nM | –
3 | C=C[C@@]1(C)CCCC[C@H]1CC#CCCCC [Compound 15] | 63 nM | –
4 | COc1ccc2ccccc2c1C=C1N=C(c2ccc(C)c(C)c2)OC1=O [Compound 19] | 708 nM | –
5 | COC(=O)CN(C)C(=O)c1cc(Cl)c(OCC(C)C)c(OC)c1 [Compound 21] | 398 nM | –
6 | CC1CCN(C(=O)CCc2ccc(Oc3cc([N+](=O)[O-])cc([N+](=O)[O-])c3)cc2)CC1 [Compound 22] | 891 nM | –
7 | Fc1ccccc1-c1nnc(SCCc2ccncc2)n1C1CC1 [Compound 24] | – | qHTS IC50 [nM] (human 15-PGDH [1]; [4]): Inactive
8 | Cc1ccc(-c2nc3c4cnn(-c5cccc(Cl)c5)c4ncn3n2)cc1 [Compound 25] | 12600 nM | –
9 | Cc1ccc(CN(c2ccc(C(=O)N3CCc4ccccc4C3)cc2)S(C)(=O)=O)cc1 [Compound 26] | 11200 nM | –
10 | COc1ccc(OC)c(C=Cc2ccc(N3C(=O)C4CC=C5C(c6cc(Br)c(O)c(OC)c6)C6=C(CC5C4C3=O)C(=O)C=C(C)C6=O)cc2)c1 (stereo not shown) [Compound 27] | 15800 nM | –
11 | COCCNC(=O)C1CSC(c2ccccc2)N1C(=O)c1ccc(OC)c(OC)c1 (stereo not shown) [Compound 28] | – | qHTS IC50 [nM] (human 15-PGDH [1]; [4]): inactive
12 | CCNC(=S)NN=Cc1cccn1-c1ccccc1 [Compound 33] | – | qHTS IC50 [nM] (human 15-PGDH [1]; [4]): inactive
13 | Cc1c(Cl)cccc1NC(=O)CNC(=O)c1cncn1-c1ccc(F)cc1 [Compound 38] | – | qHTS IC50 [nM] (human 15-PGDH [1]; [4]): Inactive
14 | CC(C)(C)c1ccc(C(=O)O/N=C(\N)c2ccc(Cl)cc2)cc1 [Compound 39] | – | qHTS IC50 [nM] (human 15-PGDH [1]; [4]): inactive
15 | O=C(CSc1n[nH]c(-c2ccccc2)n1)Nc1ncc(Br)cc1Br [Compound 40] | 1410 nM | –
16 | COc1ccc(NC(=O)c2sccc2S(=O)(=O)N2CCCCC2)c(OC)c1 [Compound 41] | 5010 nM | –
17 | Cc1ccc2nc(SCC(=O)N3CCCC[C@@H]3C)c(C#N)cc2c1 [Compound 49] | – | qHTS IC50 [nM] (human 15-PGDH [1]; [4]): Inactive
18 | NC(=O)C1=CN([C@@H]2O[C@H](COP(=O)(O)OP(=O)(O)OC[C@H]3O[C@@H](n4cnc5c(N)ncnc54)[C@H](O)[C@@H]3O)[C@@H](O)[C@H]2O)C=CC1 [NADH, reference compound] | – | Tm of 15-PGDH in the presence of cofactor (human 15-PGDH [2]; pH 8.0, ligand-free Tm 41.2±0.3°C): 52.5±0.4 °C; increase of stability by cofactor (human 15-PGDH [2]; pH 8.0): more than 10 °C
19 | NC(=O)c1ccc[n+]([C@@H]2O[C@H](COP(=O)([O-])OP(=O)(O)OC[C@H]3O[C@@H](n4cnc5c(N)ncnc54)[C@H](O)[C@@H]3O)[C@@H](O)[C@H]2O)c1 [NAD^+] | – | Titration of NAD^+ K m (human 15-PGDH [3]; [6]): 15.8 ± 0.9 µM; Titration of NAD^+ V max [µmol/(min×mg)] (human 15-PGDH [3]; [6]): 21.2 µmol/min/mg; Titration of NAD^+ k cat/K m[×10^6] (human 15-PGDH [3]; [6]): 0.7 ×10^6; Titration of NAD^+ k cat[1/sec] (human 15-PGDH [3]; [6]): 10.3 ± 0.1 s⁻¹; increase of stability by cofactor (human 15-PGDH [2]; pH 8.0): more than 4 °C
20 | CCCCC[C@H](O)/C=C/[C@H]1[C@H](O)CC(=O)[C@@H]1C/C=C\CCCC(=O)O [PGE2, 15-hydroxyprostaglandin type-E2, reference compound] | – | catalytic efficiency, k cat/K m (human 15-PGDH [3]; PGE2, absence of inhibitor): 2.5·10^6; catalytic constant, k cat (human 15-PGDH [3]; oxidation of PGE2, absence of inhibitor): about 14 per second; Titration of PGE2 K m (human 15-PGDH [3]; [7]): 5.5 ± 0.6 µM; Titration of PGE2 V max[µmol/(min×mg)] (human 15-PGDH [3]; [7]): 28.1 µmol/min/mg; Titration of PGE2 k cat/K m[×10^6] (human 15-PGDH [3]; [7]): 2.5 ×10^6; Titration of PGE2 k cat[1/sec] (human 15-PGDH [3]; [7]): 13.6 ± 0.3 s⁻¹; ΔTm in the presence of NAD+ (human 15-PGDH [2]): 2.4 °C; ΔTm in the presence of NADH (human 15-PGDH [2]): no stabilization; stabilization without cofactor (human 15-PGDH [2]; in words): failed to stabilize

Now from value to molecule, other results behind:

Row | IC50 (human 15-PGDH [1]; [5]) | Structure (SMILES) | further results
21 | 398 nM | O=C(C=Cc1ccco1)Nc1cc(Cl)c(O)c(Cl)c1 [Compound 43] | –
22 | 1000 nM | Cc1ccc2nc(Cl)c(CO)cc2c1 [Compound 46] | –
23 | 159 nM | Cc1ccccc1OCc1nnc(SCC(N)=O)o1 [Compound 47] | –
24 | 6310 nM | O=C(O)c1cccc(Oc2cc(Cl)cc(Cl)c2)c1 [Compound 51] | –
25 | 14100 nM | O=C(O)c1ccc(Cl)c(Cl)c1Br [Compound 52] | –
26 | 17800 nM | O=C(NCCc1ccc(Cl)cc1)C1CCC(CNc2c(N3CCCCC3)c(=O)c2=O)CC1 (stereo not shown) [Compound 53] | –
27 | 15800 nM | COC(=O)CSc1nc2cc(Br)c(C)nc2[nH]1 [Compound 58] | –
28 | 447 nM | CC1=NOC(=O)C1=Cc1ccc(-c2cc(Cl)ccc2Cl)o1 [Compound 62] | –
29 | 447 nM | O=C(COc1ccc(F)cc1Cl)Nc1cccc(C(=O)NC2CC2)c1 [Compound 63] | –
30 | 1120 nM | CC1=NOC(=O)C1=Cc1ccc(-c2ccc(Cl)cc2)o1 [Compound 64] | –
31 | 398 nM | CCCCc1ccc(NC(=O)C2=CN3CCS(=O)(=O)N=C3C=C2)cc1 [Compound 67] | –
32 | 447 nM | CCCCCCCCCOC(=O)c1ccc2c(c1)N(CCCS(=O)(=O)O)/C(=C\C=C\c1n(CCCS(=O)(=O)O)c3cc(C(=O)OCCCCCCCCC)ccc3[n+]1CC)N2CC [Compound 68] | –
33 | 562 nM | COc1ccc(OC)c(NC(=O)Cc2cc(Cl)ccc2OC)c1 [Compound 69] | –
34 | 3160 nM | CCc1nc(N2CCN(C(=O)c3ccco3)CC2)c(C#N)c2c1COC(C)(C)C2 [Compound 70] | –
35 | 126 nM | FC(F)(F)c1ccc(-c2nnco2)cc1 [Compound 73] | –
36 | 3980 nM | CCNC(=O)c1ccc(CSc2ccc(Cl)cc2)cc1 [Compound 74] | –
37 | 2510 nM | N#Cc1c(NC(=O)COC(=O)C23CC4CC(CC(C4)C2)C3)sc2c1CCCCC2 [Compound 75] | –
38 | 112 nM | COc1cccc(NC(=O)N2CCC3(CC2)C(=O)N(CC(=O)NCc2ccc4c(c2)OCO4)CN3c2ccccc2)c1 [Compound 76] | –
